Laboratory results published in patent US9504675B2, “Alpha-ketoheterocycles and methods of making and using” (The Scripps Research Institute, priority 2011, dated 2016).
“Also recorded” adds a separate entry of the source.

Tests used:
human FAAH (hFAAH) = target: T1, human FAAH (hFAAH) (Homo sapiens, UniProt O00519); experiment: Enzyme assay: inhibition of human FAAH (lysate of hFAAH-transfected COS-7 cells), 14C-oleamide hydrolysis; format: biochemical
T1 construct: The full-length human FAAH (hFAAH) was expressed in COS-7 cells; expressed in transfected cells; host or cells: COS-7 (transiently transfected with human FAAH cDNA)
T1 sequence (O00519 1-579): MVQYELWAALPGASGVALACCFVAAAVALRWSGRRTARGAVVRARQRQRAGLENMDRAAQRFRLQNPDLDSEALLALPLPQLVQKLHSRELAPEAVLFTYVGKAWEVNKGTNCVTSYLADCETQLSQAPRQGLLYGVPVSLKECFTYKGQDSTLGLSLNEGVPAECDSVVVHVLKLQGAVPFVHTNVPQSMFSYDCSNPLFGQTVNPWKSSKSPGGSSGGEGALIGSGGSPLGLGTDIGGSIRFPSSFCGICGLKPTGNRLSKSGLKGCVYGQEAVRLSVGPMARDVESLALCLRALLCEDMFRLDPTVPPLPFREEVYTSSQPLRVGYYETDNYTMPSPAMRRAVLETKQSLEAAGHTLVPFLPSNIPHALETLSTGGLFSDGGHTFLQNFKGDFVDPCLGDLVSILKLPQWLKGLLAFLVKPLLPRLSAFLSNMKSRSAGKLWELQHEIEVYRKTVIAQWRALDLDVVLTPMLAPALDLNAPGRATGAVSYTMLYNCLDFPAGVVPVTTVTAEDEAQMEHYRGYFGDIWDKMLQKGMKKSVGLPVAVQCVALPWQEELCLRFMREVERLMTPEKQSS
Experimental: Enzyme assays were performed at 20-23° C. with purified recombinant rat FAAH expressed in Escherichia coli or with solubilized COS-7 membrane extracts from cells transiently transfected with human FAAH cDNA (where specifically indicated) in a buffer of 125 mM Tris/1 mM EDTA/0.2% glycerol/0.02% Triton X-100/0.4 mM Hepes, pH 9.0.
^14C-labeled oleamide was prepared from ^14C-labeled oleic acid. The truncated rat FAAH (rFAAH) was expressed in E. coli and purified. The purified recombinant rFAAH was used in the inhibition assays unless otherwise indicated. The full-length human FAAH (hFAAH) was expressed in COS-7 cells as described, and the lysate of hFAAH-transfected COS-7 cells was used in the inhibition assays where explicitly indicated.
The inhibition assays were performed as follows. […] The enzyme reaction was terminated by transferring 20 μL of the reaction mixture to 500 μL of 0.1 N HCl at three different time points. The ^14C-labeled oleamide (substrate) and oleic acid (product) were extracted with EtOAc and analyzed by TLC as detailed. The Ki of the inhibitor was calculated using a Dixon plot as described (standard deviations are provided in the Supporting Information tables).

[1] = test system: catalepsy, hypothermia, hypomotility (THC-like effects); experiment: Cannabimimetic side effects after oral administration; format: in vivo; settings: oral administration 50 mg/kg
[2] = test system: endogenous levels of FAAH substrates AEA, PEA, OEA and of 2-AG, AA; experiment: In vivo pharmacodynamic studies: brain and liver lipid levels after inhibitor treatment (LC-MS); design: species or system mouse (C57BL/6J)
Experimental: This includes monitoring the effects of the inhibitors on the endogenous levels of the FAAH substrates anandamide (AEA, N-arachidonoyl ethanolamine), N-oleoyl ethanolamine (OEA), and N-palmitoyl ethanolamine (PEA), as well as the key lipids 2-arachidonoylglycerol (2-AG) and arachidonic acid (AA) that are not endogenous substrates for FAAH.
Inhibitors were prepared as a saline-emulphor emulsion for intraperitoneal (i.p.) administration by vortexing, sonicating, and gently heating neat compound directly into an 18:1:1 v/v/v solution of saline:ethanol:emulphor, or as a homogeneous PEG solution for oral administration (p.o.) by vortexing, sonicating, and gently heating neat compound directly into PEG300 (Fluka). Male C57BL/6J mice (<6 months old, 20-28 g) were administered inhibitors in saline-emulphor emulsion or an 18:1:1 v/v/v saline:emulphor:ethanol vehicle i.p. at a volume of 10 μL/g weight, or alternatively inhibitors in PEG300 or a PEG300 vehicle p.o. at a volume of 4 μL/g weight. After the indicated amount of time, mice were anesthetized with isofluorane and killed by decapitation. Total brains (˜400 mg) and a portion of the liver (˜100 mg) were removed and flash frozen in liquid N2.
Tissue was weighed and subsequently Dounce homogenized in 2:1:1 v/v/v CHCl3:MeOH:Tris pH 8.0 (8 mL) containing standards for lipids (50 pmol d4-PEA, 2 pmol d4-AEA, 0.5 nmol ds-2-AG, and 10 nmol pentadecanoic acid). The mixture was vortexed and then centrifuged (1,400×g, 10 min). The organic layer was removed, dried under a stream of N2, resolubilized in 2:1 v/v CHCl3:MeOH (120 μL), and 10 μL of this resolubilized lipid was injected onto an Agilent G6410B QQQ instrument. […] Mobile phase A was composed of a 95:5 v/v H2O:MeOH, and mobile phase B was composed of a 65:35:5 v/v/v i-PrOH:MeOH:H2O. 0.1% Formic acid or 0.1% ammonium hydroxide was included to assist in ion formation in positive and negative ionization mode, respectively. The flow rate for each run started at 0.1 mL/min with 0% B. At 5 min, the solvent was immediately changed to 60% B with a flow rate of 0.4 mL/min and increased linearly to 100% B over 10 min. […] MS analysis was performed with an electrospray ionization (ESI) source. […] For negative polarity, the analysis was performed in MS2 scan mode from 100-1000 m/z. The capillary was set to 4 kV, the fragmentor was set to 100 V, and the delta EMV was set to 0. Lipids were quantified by measuring the area under the peak in comparison to the standards.

[3] = target: T2, recombinant rat FAAH (rFAAH) (Rattus norvegicus, UniProt P97612); experiment: Enzyme assay: inhibition of purified recombinant rat FAAH, 14C-oleamide hydrolysis, Ki by Dixon plot; format: biochemical
T2 construct: The truncated rat FAAH (rFAAH) was expressed in E. coli and purified; made in house; host or cells: Escherichia coli
T2 sequence (P97612 30-579 limits assumed): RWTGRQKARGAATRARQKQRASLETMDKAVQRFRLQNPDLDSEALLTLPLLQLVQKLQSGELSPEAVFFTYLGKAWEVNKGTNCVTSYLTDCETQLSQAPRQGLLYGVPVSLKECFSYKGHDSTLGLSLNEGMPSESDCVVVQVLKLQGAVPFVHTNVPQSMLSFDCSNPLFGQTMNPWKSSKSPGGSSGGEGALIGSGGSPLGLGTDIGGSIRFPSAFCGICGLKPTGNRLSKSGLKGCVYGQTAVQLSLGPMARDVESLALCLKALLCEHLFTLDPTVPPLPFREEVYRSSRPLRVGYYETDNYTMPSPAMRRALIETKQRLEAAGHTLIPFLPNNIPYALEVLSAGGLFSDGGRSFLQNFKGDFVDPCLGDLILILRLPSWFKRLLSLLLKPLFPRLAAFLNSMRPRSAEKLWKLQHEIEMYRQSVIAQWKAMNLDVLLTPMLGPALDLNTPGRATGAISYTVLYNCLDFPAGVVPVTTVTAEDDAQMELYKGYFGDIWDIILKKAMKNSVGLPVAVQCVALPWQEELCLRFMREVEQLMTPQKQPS
In short: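 Hydrolysis of 14C-oleamide at 20-23° C by purified truncated rat FAAH expressed in E. coli or by lysate of COS-7 cells transfected with full-length human FAAH, in 125 mM Tris/1 mM EDTA/0.2% glycerol/0.02% Triton X-100/0.4 mM Hepes, pH 9.0. Reaction stopped in 0.1 N HCl at three time points; substrate and product separated by TLC; Ki from Dixon plot.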

[4] = test system: mice with CCI neuropathic pain; experiment: Chronic constriction injury (CCI) of the sciatic nerve: mechanical (von Frey) and cold (acetone) allodynia; format: in vivo, mouse (C57BL/6); settings: 50 mg/kg p.o.
Experimental: Surgery was performed as follows. Briefly, the right hind leg of male C57BL/6 mice was shaved and swabbed with betadine solution and ethanol. Posterior to the femur, an incision was made and the sciatic nerve was visualized and isolated, following muscle separation. The nerve was ligated twice with 5-0 (1.0 metric) black silk braided suture (Surgical Specialties Corporation, Reading, Pa.). The surrounding muscle and skin were then sutured with 6-0 nylon. Mice were recovered in a heated cage and observed for approximately 2 h before being returned to the vivarium.
Allodynia was initially tested 10 days after surgery. Male C57BL/6 mice were habituated to the test apparatus for 2 h on the 2 days prior to testing. On the test day, the mice were brought into the test room, weighed, and allowed to acclimate for at least 1 h before the start of the experiment. […] Mechanical (von Frey) and cold (acetone-induced) allodynia were tested at 1, 3, 6, and 9 h post drug administration. Testing was carried out by a separate observer who was blinded to treatment conditions. Mechanical allodynia was assessed with von Frey filaments (North Coast Medical, Morgan Hill, Calif.), using the “up-down” method. Each hind paw was stimulated 5 times per filament (0.16-6.0 g), starting with the 0.6 g filament and increasing weight. Paw clutching or lifting, in response to three or more stimulations, was coded as a positive response. Once a positive response was detected, sequentially lighter-weight filaments were used to assess paw withdrawal threshold. Approximately 30 min after completing the von Frey test, cold allodynia was tested by propelling 10 μL of acetone (Fisher Bioscience) via air burst, from a 200 μL pipette (Rainin Instruments, Oakland, Calif.) onto the plantar surface of each hind paw. Total time lifting or clutching each paw was recorded, with a maximum time of 20 s.
Data Analyses: Behavioral data were analyzed using a two-way mixed factorial analysis of variance (ANOVA) for each paw, with drug treatment as the between subjects measure, and time as the within subjects measure. Follow-up comparisons were made using the Bonferroni test. All animals were included in the analyses. Differences between groups were considered statistically significant at p<0.05.

[5] = 50 mg/kg p.o., time course up to 9 h
[6] = Table 6, 30 mg/kg i.p., 1 h, single mouse
[7] = Table 7, i.p. (30 mg/kg), 3 mice per group
[8] = Table 7, oral (50 mg/kg), 3 mice per group

O=C(c1ncc(-c2ccccn2)o1)C1CCc2cc(Oc3ccccc3)ccc2C1 (centres unmarked) [Compound 12, (6-Phenoxy-1,2,3,4-tetrahydronaphthalen-2-yl)(5-(pyridin-2-yl)oxazol-2-yl)methanone]
Ki (human FAAH (hFAAH); Table 5, active (S)-enantiomers): 5.8 nM
reduction in activity against the human enzyme versus rat FAAH (human FAAH (hFAAH); hFAAH vs rFAAH, active (S)-enantiomers): no significant distinction
cannabimimetic side effects [1]: did not produce catalepsy, hypothermia, or hypomotility
duration of elevation of brain N-acylethanolamines (AEA, PEA, OEA) [2, 5]: maintained over the 9 h time course
time of peak brain levels of anandamide [2, 5]: 1.5 to 3 h
Brain 2-AG [2, 6]: 13 pmol/g
Brain AA [2, 6]: 170 pmol/g
Brain AEA [2, 6]: 42 pmol/g
Brain PEA [2, 6]: 785 pmol/g
Liver 2-AG [2, 6]: 0.25 pmol/g
Liver AEA [2, 6]: 12 pmol/g
Liver PEA [2, 6]: 472 pmol/g
Brain 2-AG [2, 7]: 7.0 pmol/g
Brain AEA [2, 7]: 28.6 pmol/g
Brain PEA [2, 7]: 599 pmol/g
Brain 2-AG [2, 8]: 11.5 pmol/g
Brain AEA [2, 8]: 43.2 pmol/g
Brain PEA [2, 8]: 772 pmol/g
increases in brain levels of N-palmitoyl ethanolamine and N-oleoyl ethanolamine ([2]; p.o. 10, 25 and 50 mg/kg, 1 h): 5.5-7.8 fold
increase in brain levels of anandamide ([2]; p.o. 25-50 mg/kg, 1 h): 12-13 fold
mode of inhibition (Lineweaver-Burk analysis) [3]: reversible, competitive inhibitor; also recorded: competitive, reversible inhibition
Ki ([3]; Ki, rFAAH, Table 5, active (S)-enantiomers): 4.4 nM
duration of effect on cold allodynia [4]: > 9 h
duration of effect on mechanical allodynia [4]: > 6 h
mechanical or cold allodynia in control (contralateral) paws [4]: no effect
duration of attenuation of neuropathic pain ([4]; FIG. 9 legend): up to 9 hours
